Laboratory results taken from PMC5218480 (PLoS ONE, 2017).

System: MV-4-11 cells
Experiment: Gene expression microarray analysis (Affymetrix PrimeView) and GSEA
Type: cell-based, human
Design: RFU PODN (11730768_x_at) / Fold change /veh PODN (11730768_x_at) / RFU LINC00158 (11744669_a_at) / Fold change /veh LINC00158 (11744669_a_at) / RFU DUSP10 (11751237_a_at) / Fold change /veh DUSP10 (11751237_a_at) / RFU ID3 (11757404_x_at) / Fold change /veh ID3 (11757404_x_at) / RFU PLEKHG5 (11737974_s_at) / Fold change /veh PLEKHG5 (11737974_s_at) / RFU LRRC4B (11730491_at) / Fold change /veh LRRC4B (11730491_at) / RFU GIMAP4 (11747438_a_at) / Fold change /veh GIMAP4 (11747438_a_at) / RFU KRT8 (11758183_x_at) / Fold change /veh KRT8 (11758183_x_at) / RFU CNN1 (11734310_a_at) / Fold change /veh CNN1 (11734310_a_at) / RFU VPS37D (11726825_at) / Fold change /veh VPS37D (11726825_at) / RFU C10orf10 (11716522_x_at) / Fold change /veh C10orf10 (11716522_x_at) / RFU KIR2DL2 /// KIR2DL4 /// KIR2DL5A /// KIR2DL5B /// KIR2DS1 /// KIR2DS2 /// KIR2DS3 /// KIR2DS4 /// KIR3DL3 /// KIR3DL3 /// KIR3DS1 (11738374_at) / Fold change /veh KIR2DL2 /// KIR2DL4 /// KIR2DL5A /// KIR2DL5B /// KIR2DS1 /// KIR2DS2 /// KIR2DS3 /// KIR2DS4 /// KIR3DL3 /// KIR3DL3 /// KIR3DS1 (11738374_at) / RFU C1QL1 (11718748_at) / Fold change /veh C1QL1 (11718748_at) / RFU TMPRSS4 (11747572_a_at) / Fold change /veh TMPRSS4 (11747572_a_at) / RFU HAMP (11756126_x_at) / Fold change /veh HAMP (11756126_x_at) / RFU RNFT2 (11725882_a_at) / Fold change /veh RNFT2 (11725882_a_at) / RFU NR4A2 (11747474_a_at) / Fold change /veh NR4A2 (11747474_a_at) / RFU ABCC12 (11746883_a_at) / Fold change /veh ABCC12 (11746883_a_at) / RFU TMEM136 (11760407_x_at) / Fold change /veh TMEM136 (11760407_x_at) / RFU CLDN22 /// WWC2 (11732394_at) / Fold change /veh CLDN22 /// WWC2 (11732394_at) / RFU HLA-DPB1 (11760878_x_at) / Fold change /veh HLA-DPB1 (11760878_x_at) / RFU SPINT1 (11716480_a_at) / Fold change /veh SPINT1 (11716480_a_at) / RFU GAP43 (11754022_s_at) / Fold change /veh GAP43 (11754022_s_at) / RFU A4GNT (11735810_at) / Fold change /veh A4GNT (11735810_at) / RFU PRB3 (11715151_x_at) / Fold change /veh PRB3 (11715151_x_at) / RFU TUBB4B (11761932_at) / Fold change /veh TUBB4B (11761932_at) / RFU CAPN14 (11732068_a_at) / Fold change /veh CAPN14 (11732068_a_at) / RFU TMCC2 (11721928_a_at) / Fold change /veh TMCC2 (11721928_a_at) / RFU IRGQ (11745062_a_at) / Fold change /veh IRGQ (11745062_a_at) / RFU FAM174B (11720279_a_at) / Fold change /veh FAM174B (11720279_a_at) / RFU TMPRSS4 (11748680_a_at) / Fold change /veh TMPRSS4 (11748680_a_at) / RFU FAM212B (11763350_a_at) / Fold change /veh FAM212B (11763350_a_at) / RFU PLEKHG5 (11743358_a_at) / Fold change /veh PLEKHG5 (11743358_a_at) / RFU ZSCAN30 (11745921_a_at) / Fold change /veh ZSCAN30 (11745921_a_at) / RFU CMKLR1 (11741424_a_at) / Fold change /veh CMKLR1 (11741424_a_at) / RFU LOC101060620 /// MAPK8IP1 (11723275_at) / Fold change /veh LOC101060620 /// MAPK8IP1 (11723275_at) / RFU SPTSSB (11747773_x_at) / Fold change /veh SPTSSB (11747773_x_at) / RFU PRSS12 (11739890_at) / Fold change /veh PRSS12 (11739890_at) / RFU BIN1 (11741810_x_at) / Fold change /veh BIN1 (11741810_x_at) / RFU WNT11 (11732464_a_at) / Fold change /veh WNT11 (11732464_a_at) / RFU C10orf10 (11716521_a_at) / Fold change /veh C10orf10 (11716521_a_at) / RFU C5orf56 (11738089_at) / Fold change /veh C5orf56 (11738089_at) / RFU CYB561 (11721691_x_at) / Fold change /veh CYB561 (11721691_x_at) / RFU ANKRD19P (11752326_a_at) / Fold change /veh ANKRD19P (11752326_a_at) / RFU OR2T12 /// OR2T33 /// OR2T8 (11738714_s_at) / Fold change /veh OR2T12 /// OR2T33 /// OR2T8 (11738714_s_at) / RFU VCAN (11748164_a_at) / Fold change /veh VCAN (11748164_a_at) / RFU JSRP1 (11732532_at) / Fold change /veh JSRP1 (11732532_at) / RFU KRTAP10-11 (11738290_x_at) / Fold change /veh KRTAP10-11 (11738290_x_at) / RFU MYO3A (11730013_a_at) / Fold change /veh MYO3A (11730013_a_at) / RFU EBF3 (11725865_a_at) / Fold change /veh EBF3 (11725865_a_at) / RFU CAMK2N1 (11719241_x_at) / Fold change /veh CAMK2N1 (11719241_x_at) / RFU C5orf56 (11738088_a_at) / Fold change /veh C5orf56 (11738088_a_at) / RFU OLFML3 (11715873_a_at) / Fold change /veh OLFML3 (11715873_a_at) / RFU LOC100653217 /// NTM (11731650_a_at) / Fold change /veh LOC100653217 /// NTM (11731650_a_at) / RFU MAPK11 (11762145_a_at) / Fold change /veh MAPK11 (11762145_a_at) / RFU FIZ1 (11724087_x_at) / Fold change /veh FIZ1 (11724087_x_at) / RFU OASL (11726364_x_at) / Fold change /veh OASL (11726364_x_at) / RFU SOX15 (11748057_x_at) / Fold change /veh SOX15 (11748057_x_at) / RFU CD79A (11719716_a_at) / Fold change /veh CD79A (11719716_a_at) / RFU HIST1H1D (11736915_at) / Fold change /veh HIST1H1D (11736915_at) / RFU CASKIN2 (11723855_a_at) / Fold change /veh CASKIN2 (11723855_a_at) / RFU LOC730098 (11760151_x_at) / Fold change /veh LOC730098 (11760151_x_at) / RFU OR4N2 (11742367_at) / Fold change /veh OR4N2 (11742367_at) / RFU PRRT2 (11749266_a_at) / Fold change /veh PRRT2 (11749266_a_at) / RFU SNX32 (11753110_a_at) / Fold change /veh SNX32 (11753110_a_at) / RFU CDHR5 (11726645_a_at) / Fold change /veh CDHR5 (11726645_a_at) / RFU RCAN1 (11760418_a_at) / Fold change /veh RCAN1 (11760418_a_at) / RFU FAM167A (11723789_a_at) / Fold change /veh FAM167A (11723789_a_at) / RFU FAM26E (11764081_at) / Fold change /veh FAM26E (11764081_at) / RFU ISYNA1 (11749810_s_at) / Fold change /veh ISYNA1 (11749810_s_at) / RFU ACY1 (11761880_at) / Fold change /veh ACY1 (11761880_at) / RFU 11764098_at / Fold change /veh 11764098_at / RFU SAMD14 (11745864_x_at) / Fold change /veh SAMD14 (11745864_x_at) / RFU NPB (11741838_a_at) / Fold change /veh NPB (11741838_a_at) / RFU TMPRSS6 (11731388_a_at) / Fold change /veh TMPRSS6 (11731388_a_at) / RFU KRTAP10-2 (11738614_at) / Fold change /veh KRTAP10-2 (11738614_at) / RFU ARHGAP8 /// PRR5-ARHGAP8 (11727945_x_at) / Fold change /veh ARHGAP8 /// PRR5-ARHGAP8 (11727945_x_at) / RFU KRTAP5-7 /// NADSYN1 (11734609_at) / Fold change /veh KRTAP5-7 /// NADSYN1 (11734609_at) / RFU RASL12 (11751679_a_at) / Fold change /veh RASL12 (11751679_a_at) / RFU CDKN2B (11736163_a_at) / Fold change /veh CDKN2B (11736163_a_at) / RFU PRF1 (11729649_at) / Fold change /veh PRF1 (11729649_at) / RFU, ZNF638 /// ZNF638-IT1 / Fold change vs veh, ZNF638 /// ZNF638-IT1 / RFU, PANK3 / Fold change vs veh, PANK3 / RFU, SH3YL1 / Fold change vs veh, SH3YL1 / RFU, ZEB2 / Fold change vs veh, ZEB2 / RFU, NRIP1 / Fold change vs veh, NRIP1 / RFU, PTTG1IP / Fold change vs veh, PTTG1IP / RFU, CAPN2 / Fold change vs veh, CAPN2 / RFU, MED14 / Fold change vs veh, MED14 / RFU, SNORA58 / Fold change vs veh, SNORA58 / RFU, C1orf63 / Fold change vs veh, C1orf63 / RFU, LRRFIP1 / Fold change vs veh, LRRFIP1 / RFU, NDUFAF7 / Fold change vs veh, NDUFAF7 / RFU, SLC12A2 / Fold change vs veh, SLC12A2 / RFU, IBTK / Fold change vs veh, IBTK / RFU, ESF1 / Fold change vs veh, ESF1 / Fold change vs veh, TMEM50B / RFU, TAOK1 / Fold change vs veh, TAOK1 / RFU, ACBD3 / Fold change vs veh, ACBD3 / RFU, TMA16 / Fold change vs veh, TMA16 / RFU, RWDD3 / Fold change vs veh, RWDD3 / RFU, BCAT1 / Fold change vs veh, BCAT1 / RFU, EDEM3 / Fold change vs veh, EDEM3 / RFU, TMEM33 / Fold change vs veh, TMEM33 / RFU, WDR75 / Fold change vs veh, WDR75 / RFU, AHCTF1 / Fold change vs veh, AHCTF1 / RFU, TFRC / Fold change vs veh, TFRC / RFU, ZDHHC17 / Fold change vs veh, ZDHHC17 / RFU, NOM1 / Fold change vs veh, NOM1 / RFU, ARL8B / Fold change vs veh, ARL8B / RFU, ZBTB11 / Fold change vs veh, ZBTB11 / RFU, TAMM41 / Fold change vs veh, TAMM41 / RFU, KIAA1704 /// LOC100996395 / Fold change vs veh, KIAA1704 /// LOC100996395 / RFU, ING1 / Fold change vs veh, ING1 / RFU, TRMT61B / Fold change vs veh, TRMT61B / RFU, FUBP3 / Fold change vs veh, FUBP3 / RFU, TP53 / Fold change vs veh, TP53 / RFU, TNKS2 / Fold change vs veh, TNKS2 / RFU, ZFP14 / Fold change vs veh, ZFP14 / RFU, ACTR2 / Fold change vs veh, ACTR2 / RFU, PPP3R1 / Fold change vs veh, PPP3R1 / RFU, PIK3R1 / Fold change vs veh, PIK3R1 / RFU, HNRNPA1 / Fold change vs veh, HNRNPA1 / RFU, RNF170 / Fold change vs veh, RNF170 / RFU, ZNF28 / Fold change vs veh, ZNF28 / RFU, RNGTT / Fold change vs veh, RNGTT / RFU, OGT / Fold change vs veh, OGT / RFU, BRD1 / Fold change vs veh, BRD1 / RFU, MARS / Fold change vs veh, MARS / RFU, ZNF655 / Fold change vs veh, ZNF655 / RFU, FAHD1 / Fold change vs veh, FAHD1 / RFU, BDP1 / Fold change vs veh, BDP1 / RFU, LRRCC1 / Fold change vs veh, LRRCC1 / RFU, ARID1A / Fold change vs veh, ARID1A / RFU, ZNF146 / Fold change vs veh, ZNF146 / RFU, ZNF330 / Fold change vs veh, ZNF330 / RFU, GPN3 / Fold change vs veh, GPN3 / RFU, C9orf123 / Fold change vs veh, C9orf123 / RFU, N4BP2L2 / Fold change vs veh, N4BP2L2 / RFU, ARFIP1 / Fold change vs veh, ARFIP1 / RFU, FAM179B / Fold change vs veh, FAM179B / RFU, BCL10 / Fold change vs veh, BCL10 / RFU, UHRF1BP1L / Fold change vs veh, UHRF1BP1L / RFU, BET1 / Fold change vs veh, BET1 / RFU, CNOT2 / Fold change vs veh, CNOT2 / RFU, ZNF268 / Fold change vs veh, ZNF268 / Fold change vs veh, ZNF507 / RFU, DGCR2 / Fold change vs veh, DGCR2 / RFU, WDSUB1 / Fold change vs veh, WDSUB1 / Fold change vs veh, HSP90B1 /// MIR3652 / RFU, ADSS / Fold change vs veh, ADSS / RFU, GK / Fold change vs veh, GK / RFU, ZNF148 / Fold change vs veh, ZNF148 / RFU, TAF9 / Fold change vs veh, TAF9 / RFU, SLC1A5 / Fold change vs veh, SLC1A5 / RFU, SLMO2 / Fold change vs veh, SLMO2 / RFU, ABCC4 / Fold change vs veh, ABCC4 / RFU, LOC101060439 /// RAP1B / Fold change vs veh, LOC101060439 /// RAP1B / RFU, RFX7 / Fold change vs veh, RFX7 / RFU, GTPBP10 / Fold change vs veh, GTPBP10 / RFU, CNEP1R1 / Fold change vs veh, CNEP1R1 / RFU, BIVM-ERCC5 /// ERCC5 / Fold change vs veh, BIVM-ERCC5 /// ERCC5 / RFU, ILF3 / Fold change vs veh, ILF3 / RFU 11762660_at / Fold change /veh 11762660_at / RFU VCAN (11757783_s_at) / Fold change /veh VCAN (11757783_s_at) / RFU DDX43 (11728927_at) / Fold change /veh DDX43 (11728927_at) / RFU KRT8 (11758188_x_at) / Fold change /veh KRT8 (11758188_x_at) / RFU NKD1 (11759106_at) / Fold change /veh NKD1 (11759106_at) / RFU SRD5A1 (11742802_a_at) / Fold change /veh SRD5A1 (11742802_a_at) / RFU TPSAB1 /// TPSB2 (11721975_s_at) / Fold change /veh TPSAB1 /// TPSB2 (11721975_s_at) / RFU GSTM3 (11746129_a_at) / Fold change /veh GSTM3 (11746129_a_at) / RFU IL23R (11737362_x_at) / Fold change /veh IL23R (11737362_x_at) / RFU TMEM51 (11727254_a_at) / Fold change /veh TMEM51 (11727254_a_at) / RFU PIWIL2 (11732686_x_at) / Fold change /veh PIWIL2 (11732686_x_at) / RFU ORM1 (11744905_x_at) / Fold change /veh ORM1 (11744905_x_at) / RFU CCDC152 (11743942_at) / Fold change /veh CCDC152 (11743942_at) / RFU ECM1 (11717891_a_at) / Fold change /veh ECM1 (11717891_a_at) / RFU IL23R (11748794_a_at) / Fold change /veh IL23R (11748794_a_at) / RFU TNFAIP8L3 (11732012_x_at) / Fold change /veh TNFAIP8L3 (11732012_x_at) / RFU MBOAT4 (11741988_at) / Fold change /veh MBOAT4 (11741988_at) / RFU 11764193_at / Fold change /veh 11764193_at / RFU TMEM53 (11763286_at) / Fold change /veh TMEM53 (11763286_at) / RFU MAGEB2 (11727129_at) / Fold change /veh MAGEB2 (11727129_at) / RFU TMEM200A (11744735_a_at) / Fold change /veh TMEM200A (11744735_a_at) / RFU CCDC152 (11751479_a_at) / Fold change /veh CCDC152 (11751479_a_at) / RFU FAM211A (11726209_a_at) / Fold change /veh FAM211A (11726209_a_at) / RFU RGS16 (11746705_a_at) / Fold change /veh RGS16 (11746705_a_at) / RFU VCAN (11755009_s_at) / Fold change /veh VCAN (11755009_s_at) / RFU RHOB (11743442_s_at) / Fold change /veh RHOB (11743442_s_at) / RFU RGS16 (11720943_a_at) / Fold change /veh RGS16 (11720943_a_at) / RFU RGS16 (11720944_at) / Fold change /veh RGS16 (11720944_at) / RFU, VPS4B / Fold change vs veh, VPS4B / RFU, CREB1 / Fold change vs veh, CREB1 / RFU, DNAJC13 / Fold change vs veh, DNAJC13 / RFU, GNAQ / Fold change vs veh, GNAQ / RFU, CDK5R1 / Fold change vs veh, CDK5R1 / RFU, ZRANB3 / Fold change vs veh, ZRANB3 / RFU, CUL4A / Fold change vs veh, CUL4A / RFU, CCNY / Fold change vs veh, CCNY / RFU, UFL1 / Fold change vs veh, UFL1 / RFU, COG3 / Fold change vs veh, COG3 / RFU, DIAPH2 / Fold change vs veh, DIAPH2 / RFU, SKA2 / Fold change vs veh, SKA2 / RFU, AFF3 / Fold change vs veh, AFF3 / RFU, LMF1 / Fold change vs veh, LMF1 / RFU, IPO11 / Fold change vs veh, IPO11 / RFU, DFFB / Fold change vs veh, DFFB / RFU, FOXP1 / Fold change vs veh, FOXP1 / RFU, CARD8 / Fold change vs veh, CARD8 / RFU, STRN3 / Fold change vs veh, STRN3 / RFU, ADK / Fold change vs veh, ADK / RFU, RASSF2 / Fold change vs veh, RASSF2 / RFU, WIPF1 / Fold change vs veh, WIPF1 / RFU, LARP1B / Fold change vs veh, LARP1B / RFU, RASA1 / Fold change vs veh, RASA1 / RFU, RB1 / Fold change vs veh, RB1 / RFU, PPFIA1 / Fold change vs veh, PPFIA1 / RFU, MAT2A / Fold change vs veh, MAT2A / RFU, CCT5 / Fold change vs veh, CCT5 / RFU, WDR92 / Fold change vs veh, WDR92 / RFU, CUX1 / Fold change vs veh, CUX1 / RFU, TTC7A / Fold change vs veh, TTC7A / RFU, TMEM135 / Fold change vs veh, TMEM135 / RFU, DEPTOR / Fold change vs veh, DEPTOR / RFU, CPM / Fold change vs veh, CPM / RFU, DNAJB6 / Fold change vs veh, DNAJB6 / RFU, CACNA2D3 / Fold change vs veh, CACNA2D3 / RFU, DTX4 / Fold change vs veh, DTX4 / RFU, TFCP2 / Fold change vs veh, TFCP2 / RFU, GMCL1 /// GMCL1P1 / Fold change vs veh, GMCL1 /// GMCL1P1 / RFU, AEBP2 / Fold change vs veh, AEBP2 / RFU, SNHG1 /// SNORD22 /// SNORD25 /// SNORD26 /// SNORD27 /// SNORD28 /// SNORD29 /// SNORD31 / Fold change vs veh, SNHG1 /// SNORD22 /// SNORD25 /// SNORD26 /// SNORD27 /// SNORD28 /// SNORD29 /// SNORD31 / Fold change (Aza/veh), C12orf56 (ProbeSet 11735607_a_at) / Fold change (ACY-1035/veh), C12orf56 (ProbeSet 11735607_a_at) / Fold change (Aza/veh), FGFR1OP (ProbeSet 11751329_s_at) / Fold change (ACY-1035/veh), FGFR1OP (ProbeSet 11751329_s_at) / Fold change (Aza/veh), VPS36 (ProbeSet 11739960_a_at) / Fold change (ACY-1035/veh), VPS36 (ProbeSet 11739960_a_at) / RFU SYPL1 (11715823_x_at) / Fold change /veh SYPL1 (11715823_x_at) / RFU IGFBP7 (11715501_s_at) / Fold change /veh IGFBP7 (11715501_s_at) / RFU REEP3 (11722064_at) / Fold change /veh REEP3 (11722064_at) / RFU IGLL1 (11728026_x_at) / Fold change /veh IGLL1 (11728026_x_at): dose or concentration left out as unconfirmed
Conditions: MV-4-11 cells, 48 hours

Nc1ncn([C@@H]2O[C@H](CO)[C@@H](O)[C@H]2O)c(=O)n1 [azacitidine]
RFU BIN1 (11741810_x_at): 29.77 RFU
